Patent publication US20230095836A1, “SUBSTITUTED 5,6-DIPHENYL-3(2H)-PYRIDAZINONES FOR USE AS FUNGICIDES” (FMC Corporation, priority 2020, published 2023)

Tests used:
Assay type in all cases: in vivo
Alternaria solani = test: Test F: test suspension sprayed on tomato seedlings, inoculated next day with Alternaria solani (tomato early blight); visual disease rating (100 = 100% disease control, 0 = no control; dash = not tested)
Protocol: (§1) The resulting test suspensions were then used in Tests A-F. The test suspension was sprayed to the point of run-off on tomato seedlings. The following day the seedlings were inoculated with a spore suspension of Alternaria solani (the causal agent of tomato early blight) and incubated in a saturated atmosphere at 27° C. for 48 h, and then moved to a growth chamber at 20° C. for 3 days, after which time visual disease ratings were made. A rating of 100 indicates 100% disease control and a rating of 0 indicates no disease control (relative to the controls). A dash (—) indicates the compound was not tested.

[1] = system: Puccinia recondita f. sp. tritici; test: Test B: test solution sprayed on wheat seedlings, inoculated next day with Puccinia recondita f. sp. tritici (wheat leaf rust); disease rating (100 = 100% disease control, 0 = no control; dash = not tested)
From the text: The resulting test suspensions were then used in Tests A-F. The test solution was sprayed to the point of run-off on wheat seedlings. […] A rating of 100 indicates 100% disease control and a rating of 0 indicates no disease control (relative to the controls). A dash (—) indicates the compound was not tested.

Phakopsora pachyrhizi = test: Test D: test solution sprayed on soybean seedlings, inoculated next day with Phakopsora pachyrhizi (Asian soybean rust); visual disease rating (100 = 100% disease control, 0 = no control; dash = not tested)
From the text: General protocol for preparing test suspensions for Tests A-F: the test compounds were first dissolved in acetone in an amount equal to 3% of the final volume and then suspended at the desired concentration (in ppm) in acetone and purified water (50/50 mix by volume) containing 250 ppm of the surfactant PEG400 (polyhydric alcohol esters). The resulting test suspensions were then used in Tests A-F.
The test solution was sprayed to the point of run-off on soybean seedlings. The following day the seedlings were inoculated with a spore suspension of Phakopsora pachyrhizi (the causal agent of Asian soybean rust) and incubated in a saturated atmosphere at 22° C. for 24 h and then moved to a growth chamber at 22° C. for 8 days, after which time visual disease ratings were made.
A rating of 100 indicates 100% disease control and a rating of 0 indicates no disease control (relative to the controls). A dash (—) indicates the compound was not tested.

Botrytis cinerea = test: Test E: test suspension sprayed on tomato seedlings, inoculated next day with Botrytis cinerea (tomato Botrytis); visual disease rating (100 = 100% disease control, 0 = no control; dash = not tested)
Protocol: as §1, with “Botrytis cinerea” for “Alternaria solani”, “Botrytis)” for “early blight)”, “20°” for “27°”, “24°” for “20°”

Zymoseptoria tritici = test: Test A: test solution sprayed on wheat seedlings, inoculated next day with Zymoseptoria tritici (wheat leaf blotch); disease rating (100 = 100% disease control, 0 = no control; dash = not tested)
Protocol: The resulting test suspensions were then used in Tests A-F. The test solution was sprayed to the point of run-off on wheat seedlings. The following day the seedlings were inoculated with a spore suspension of Zymoseptoria tritici (the causal agent of wheat leaf blotch) and incubated in a saturated atmosphere at 24° C. for 48 h, and then moved to a growth chamber at 20° C. for 17 days, after which time disease ratings were made. A rating of 100 indicates 100% disease control and a rating of 0 indicates no disease control (relative to the controls). A dash (—) indicates the compound was not tested.

[2] = system: Blumeria graminis f. sp. tritici; test: Test C: test suspension sprayed on wheat seedlings, inoculated next day with Blumeria graminis f. sp. tritici (wheat powdery mildew); visual disease rating (100 = 100% disease control, 0 = no control; dash = not tested)
Protocol: as §1, with “on wheat” for “on tomato”, “spore dust” for “spore suspension”, “of Blumeria graminis f. sp. tritici, (also known as Erysiphe graminis f. sp. tritici, the” for “of Alternaria solani (the”, “of wheat powdery mildew)” for “of tomato early blight)”, “in” for “in a saturated atmosphere at 27° C. for 48 h, and then moved to”, “for 8” for “for 3”

`CC(O)c1c(-c2ccc(F)cc2Cl)c(-c2ccc(F)cc2Cl)nn(C)c1=O` (racemic) [Compound 131] was tested. Which “Test F disease control rating” value (Alternaria solani; 50 ppm) did it give?
Its value is 0%.

And the “Test B disease control rating” value ([1]; 50 ppm)?
Its value is 74%.

And the “Test D disease control rating” value (Phakopsora pachyrhizi; 50 ppm)?
The value was 19%.

And the “Test E disease control rating” value (Botrytis cinerea; 50 ppm)?
Its value is 97%.

And the “Test A disease control rating” value (Zymoseptoria tritici; 50 ppm)?
The value was 96%.

For `CC(F)c1c(-c2ccc(F)cc2Cl)c(-c2ccc(F)cc2Cl)nn(C)c1=O` (racemic) [Compound 132], which “Test F disease control rating” value (Alternaria solani; 50 ppm) is on record?
The value was 0%.

What about the “Test B disease control rating” value ([1]; 50 ppm) of the same molecule?
The value was 68%.

And the “Test D disease control rating” value (Phakopsora pachyrhizi; 50 ppm)?
The value was 0%.

What about the “Test E disease control rating” value (Botrytis cinerea; 50 ppm) of the same molecule?
Its value is 97%.

And the “Test A disease control rating” value (Zymoseptoria tritici; 50 ppm)?
Its value is 100%.

`CCn1nc(-c2cc(OC)cc(OC)c2)c(-c2c(F)cccc2F)c(Cl)c1=O` [Compound 1] was tested. Which “Test F disease control rating” value (Alternaria solani; 250 ppm) did it give?
Its value is 0%.

What about the “Test B disease control rating” value ([1]; 250 ppm) of the same molecule?
Its value is 55%.

What about the “Test D disease control rating” value (Phakopsora pachyrhizi; 250 ppm) of the same molecule?
The value was 0%.

And the “Test E disease control rating” value (Botrytis cinerea; 250 ppm)?
The value was 90%.

And the “Test A disease control rating” value (Zymoseptoria tritici; 250 ppm)?
Its value is 87%.

What about the “Test C disease control rating” value ([2]; 250 ppm) of the same molecule?
Its value is 0%.

For `CCn1nc(-c2c(Cl)c(OC)cc(OC)c2Cl)c(-c2c(F)cccc2F)cc1=O` [Compound 2], which “Test F disease control rating” value (Alternaria solani; 250 ppm) is on record?
Its value is 0%.

And the “Test B disease control rating” value ([1]; 250 ppm)?
Its value is 0%.

And the “Test D disease control rating” value (Phakopsora pachyrhizi; 250 ppm)?
Its value is 0%.

What about the “Test E disease control rating” value (Botrytis cinerea; 250 ppm) of the same molecule?
The value was 0%.

And the “Test A disease control rating” value (Zymoseptoria tritici; 250 ppm)?
The value was 2%.

What about the “Test C disease control rating” value ([2]; 250 ppm) of the same molecule?
The value was 0%.

With `CCn1nc(-c2cc(OC)cc(OC)c2)c(-c2cc(OC)cc(OC)c2)cc1=O` [Compound 3] as the molecule, how does the “Test F disease control rating” value (Alternaria solani; 250 ppm) read?
Its value is 0%.

What about the “Test B disease control rating” value ([1]; 250 ppm) of the same molecule?
Its value is 0%.

And the “Test D disease control rating” value (Phakopsora pachyrhizi; 250 ppm)?
Its value is 0%.

What about the “Test E disease control rating” value (Botrytis cinerea; 250 ppm) of the same molecule?
The value was 0%.

And the “Test A disease control rating” value (Zymoseptoria tritici; 250 ppm)?
Its value is 7%.

And the “Test C disease control rating” value ([2]; 250 ppm)?
Its value is 0%.

How did the pest or weed control at 250 ppm (Alternaria solani; 250 ppm) turn out when `CCn1nc(-c2c(F)cccc2F)c(-c2cc(OC)cc(OC)c2)cc1=O` [Compound 4, 6-(2,6-difluorophenyl)-5-(3,5-dimethoxyphenyl)-2-ethyl-3(2H)-pyridazinone] was run?
The pest or weed control at 250 ppm was 0%.

And the pest or weed control at 250 ppm ([1]; 250 ppm)?
Its pest or weed control at 250 ppm is 0%.

What about the pest or weed control at 250 ppm (Phakopsora pachyrhizi; 250 ppm) of the same molecule?
The pest or weed control at 250 ppm was 0%.

And the pest or weed control at 250 ppm (Botrytis cinerea; 250 ppm)?
The pest or weed control at 250 ppm was 9%.

And the pest or weed control at 250 ppm (Zymoseptoria tritici; 250 ppm)?
The pest or weed control at 250 ppm was 66%.

What about the pest or weed control at 250 ppm ([2]; 250 ppm) of the same molecule?
Its pest or weed control at 250 ppm is 0%.

What does the source list for `Cn1nc(-c2c(F)cccc2F)c(-c2c(F)cccc2F)cc1=O` [Compound 5, 5,6-bis(2,6-difluorophenyl)-2-methyl-3(2H)-pyridazinone]?
pest or weed control at 250 ppm (Alternaria solani; 250 ppm): 0%; pest or weed control at 250 ppm ([1]; 250 ppm): 0%; pest or weed control at 250 ppm (Phakopsora pachyrhizi; 250 ppm): 0%; pest or weed control at 250 ppm (Botrytis cinerea; 250 ppm): 99%; pest or weed control at 250 ppm (Zymoseptoria tritici; 250 ppm): 42%; pest or weed control at 250 ppm ([2]; 250 ppm): 100%

`CCn1nc(-c2ccc(F)cc2Cl)c(-c2ccc(F)cc2Cl)c(C#N)c1=O` [Compound 7] was tested. Which “Test F disease control rating” value (Alternaria solani; 250 ppm) did it give?
The value was 0%.

And the “Test B disease control rating” value ([1]; 250 ppm)?
Its value is 74%.

What about the “Test D disease control rating” value (Phakopsora pachyrhizi; 250 ppm) of the same molecule?
Its value is 0%.

What about the “Test E disease control rating” value (Botrytis cinerea; 250 ppm) of the same molecule?
Its value is 99%.

And the “Test A disease control rating” value (Zymoseptoria tritici; 250 ppm)?
The value was 98%.

And the “Test C disease control rating” value ([2]; 250 ppm)?
The value was 0%.

How did the “Test F disease control rating” value (Alternaria solani; 50 ppm) turn out when `CCn1nc(-c2cc(OC)cc(OC)c2Cl)c(-c2c(F)cccc2F)cc1=O` [Compound 8] was run?
The value was 0%.

What about the “Test B disease control rating” value ([1]; 50 ppm) of the same molecule?
Its value is 96%.

And the “Test D disease control rating” value (Phakopsora pachyrhizi; 50 ppm)?
Its value is 75%.

And the “Test E disease control rating” value (Botrytis cinerea; 50 ppm)?
The value was 99%.

And the “Test A disease control rating” value (Zymoseptoria tritici; 50 ppm)?
The value was 100%.

What about the “Test C disease control rating” value ([2]; 50 ppm) of the same molecule?
Its value is 97%.

How did the “Test F disease control rating” value (Alternaria solani; 50 ppm) turn out when `Cn1nc(-c2ccc(F)cc2Cl)c(-c2ccc(F)cc2Cl)c(C(F)F)c1=O` [Compound 130] was run?
The value was 98%.

And the “Test B disease control rating” value ([1]; 50 ppm)?
The value was 100%.

And the “Test D disease control rating” value (Phakopsora pachyrhizi; 50 ppm)?
Its value is 77%.

What about the “Test E disease control rating” value (Botrytis cinerea; 50 ppm) of the same molecule?
Its value is 98%.

What about the “Test A disease control rating” value (Zymoseptoria tritici; 50 ppm) of the same molecule?
Its value is 100%.

For `Cn1nc(-c2ccc(F)cc2Cl)c(-c2ccc(F)cc2Cl)c(C(N)=O)c1=O` [Compound 133], which “Test F disease control rating” value (Alternaria solani; 50 ppm) is on record?
The value was 0%.

What about the “Test B disease control rating” value ([1]; 50 ppm) of the same molecule?
Its value is 0%.

What about the “Test D disease control rating” value (Phakopsora pachyrhizi; 50 ppm) of the same molecule?
Its value is 0%.

And the “Test E disease control rating” value (Botrytis cinerea; 50 ppm)?
Its value is 0%.

What about the “Test A disease control rating” value (Zymoseptoria tritici; 50 ppm) of the same molecule?
Its value is 3%.

What does the source list for `COc1cc(C#N)cc(-c2nn(C)c(=O)c(Cl)c2-c2ccc(F)cc2Cl)c1` [Compound 173]?
Test F disease control rating (Alternaria solani; 50 ppm): 99%; Test B disease control rating ([1]; 50 ppm): 100%; Test D disease control rating (Phakopsora pachyrhizi; 50 ppm): 84%; Test E disease control rating (Botrytis cinerea; 50 ppm): 92%; Test C disease control rating ([2]; 50 ppm): 94%

For `COc1cc(C#N)cc(-c2nn(C)c(=O)c(OC)c2-c2ccc(F)cc2Cl)c1` [Compound 174], which “Test F disease control rating” value (Alternaria solani; 50 ppm) is on record?
The value was 91%.

And the “Test B disease control rating” value ([1]; 50 ppm)?
Its value is 95%.

What about the “Test D disease control rating” value (Phakopsora pachyrhizi; 50 ppm) of the same molecule?
Its value is 30%.

What about the “Test E disease control rating” value (Botrytis cinerea; 50 ppm) of the same molecule?
Its value is 83%.

What about the “Test C disease control rating” value ([2]; 50 ppm) of the same molecule?
Its value is 97%.
